Values quoted from earlier work, collected in patent publication US11123368B2, “Immunosuppressive blood cells and methods of producing the same” (Universitatsklinikum Heidelberg, priority 2008, dated 2021).

Test system: multiple sclerosis
Conditions: clinical trials

For glatiramer acetate, the “relapse rate of MS” value is listed as “significantly reduced” and the progression of disability (MS) is listed as “slowed progression of disability”.
